Experimental data from ChEMBL document CHEMBL3045446, “In vitro antimicrobial and antimycobacterial activity of some chalcones and their derivatives” (2013).
Values after ≈ are worked out from the molar mass of the structure shown.

Key:
Assay type in all cases: functional
[1] = system: Mycobacterium tuberculosis; experiment: Antituberculosis activity against Mycobacterium tuberculosis H37Rv assessed as growth inhibition after 12 to 28 days by L-J MIC method; settings: for MIC: Mycobacterium tuberculosis, H37Rv
[2] = system: Candida albicans; experiment: Antimicrobial activity against Candida albicans MTCC 183 assessed as growth inhibition after 48 hr by agar streak dilution method; settings: MTCC 183, 48 h
[3] = system: Aspergillus clavatus; experiment: Antimicrobial activity against Aspergillus clavatus MTCC 1323 assessed as growth inhibition after 48 hr by agar streak dilution method; settings: MTCC 1323, 48 h
[4] = system: Aspergillus fumigatus; experiment: Antimicrobial activity against Aspergillus fumigatus MTCC 343 assessed as growth inhibition after 48 hr by agar streak dilution method; settings: MTCC 343, 48 h
[5] = system: Aspergillus niger; experiment: Antimicrobial activity against Aspergillus niger MTCC 282 assessed as growth inhibition after 48 hr by agar streak dilution method; settings: MTCC 282, 48 h
[6] = system: Shigella flexneri; experiment: Antimicrobial activity against Shigella flexneri MTCC1457 assessed as growth inhibition after 24 hr by agar streak dilution method; settings: MTCC1457, 24 h
[7] = system: Proteus vulgaris; experiment: Antimicrobial activity against Proteus vulgaris MTCC 1771 assessed as growth inhibition after 24 hr by agar streak dilution method; settings: MTCC 1771, 24 h
[8] = system: Salmonella typhi; experiment: Antimicrobial activity against Salmonella enterica subsp. enterica serovar Typhi MTCC 733 assessed as growth inhibition after 24 hr by agar streak dilution method; settings: MTCC 733, 24 h
[9] = system: Klebsiella pneumoniae; experiment: Antimicrobial activity against Klebsiella pneumoniae MTCC 109 assessed as growth inhibition after 24 hr by agar streak dilution method; settings: MTCC 109, 24 h
[10] = system: Pseudomonas aeruginosa; experiment: Antimicrobial activity against Pseudomonas aeruginosa MTCC 741 assessed as growth inhibition after 24 hr by agar streak dilution method; settings: MTCC 741, 24 h
[11] = system: Escherichia coli; experiment: Antimicrobial activity against Escherichia coli MTCC 739 assessed as growth inhibition after 24 hr by agar streak dilution method; settings: MTCC 739, 24 h
[12] = system: Bacillus cereus; experiment: Antimicrobial activity against Bacillus cereus MTCC 430 assessed as growth inhibition after 24 hr by agar streak dilution method; settings: MTCC 430, 24 h
[13] = system: Staphylococcus aureus; experiment: Antimicrobial activity against Staphylococcus aureus MTCC 96 assessed as growth inhibition after 24 hr by agar streak dilution method; settings: MTCC 96, 24 h
[14] = system: Candida albicans; experiment: Antimicrobial activity against Candida albicans MTCC 183 assessed as diameter of growth inhibition zone after 48 hr; further: test concentration or dose not given here
[15] = system: Aspergillus clavatus; experiment: Antimicrobial activity against Aspergillus clavatus MTCC 1323 assessed as diameter of growth inhibition zone after 48 hr; further: test concentration or dose not given here
[16] = system: Aspergillus fumigatus; experiment: Antimicrobial activity against Aspergillus fumigatus MTCC 343 assessed as diameter of growth inhibition zone after 48 hr; further: test concentration or dose not given here
[17] = system: Aspergillus niger; experiment: Antimicrobial activity against Aspergillus niger MTCC 282 assessed as diameter of growth inhibition zone after 48 hr; further: test concentration or dose not given here
[18] = system: Shigella flexneri; experiment: Antimicrobial activity against Shigella flexneri MTCC1457 assessed as diameter of growth inhibition zone after 24 hr
[19] = system: Proteus vulgaris; experiment: Antimicrobial activity against Proteus vulgaris MTCC 1771 assessed as diameter of growth inhibition zone after 24 hr
[20] = system: Salmonella typhi; experiment: Antimicrobial activity against Salmonella enterica subsp. enterica serovar Typhi MTCC 733 assessed as diameter of growth inhibition zone after 24 hr
[21] = system: Klebsiella pneumoniae; experiment: Antimicrobial activity against Klebsiella pneumoniae MTCC 109 assessed as diameter of growth inhibition zone after 24 hr; further: test concentration or dose not given here
[22] = system: Pseudomonas aeruginosa; experiment: Antimicrobial activity against Pseudomonas aeruginosa MTCC 741 assessed as diameter of growth inhibition zone after 24 hr
[23] = system: Escherichia coli; experiment: Antimicrobial activity against Escherichia coli MTCC 739 assessed as diameter of growth inhibition zone after 24 hr; further: test concentration or dose not given here
[24] = system: Bacillus cereus; experiment: Antimicrobial activity against Bacillus cereus MTCC 430 assessed as diameter of growth inhibition zone after 24 hr; further: test concentration or dose not given here
[25] = system: Staphylococcus aureus; experiment: Antimicrobial activity against Staphylococcus aureus MTCC 96 assessed as diameter of growth inhibition zone after 24 hr; further: test concentration or dose not given here

Structure (SMILES) | growth inhibition (GI) [1] | MIC [1] | MIC [2] | MIC [3] | MIC [4] | MIC [5] | MIC [6] | MIC [7] | MIC [8] | MIC [9] | MIC [10] | MIC [11] | MIC [12] | MIC [13] | diameter of the inhibition zone (DIZ) [14] | diameter of the inhibition zone (DIZ) [15] | diameter of the inhibition zone (DIZ) [16] | diameter of the inhibition zone (DIZ) [17] | diameter of the inhibition zone (DIZ) [18] | diameter of the inhibition zone (DIZ) [19] | other results
Nc1nc(-c2ccc(F)cc2)cc(-c2ccc(Nc3cc(=O)oc4ccccc34)cc2)n1 | 99% | 62.5 µg/mL (≈ 147 µM) | 25 µg/mL (≈ 58.9 µM) | 6.25 µg/mL (≈ 14.7 µM) | 6.25 µg/mL (≈ 14.7 µM) | 12.5 µg/mL (≈ 29.5 µM) | 12.5 µg/mL (≈ 29.5 µM) | 6.25 µg/mL (≈ 14.7 µM) | 12.5 µg/mL (≈ 29.5 µM) | 3.12 µg/mL (≈ 7.35 µM) | 12.5 µg/mL (≈ 29.5 µM) | 6.25 µg/mL (≈ 14.7 µM) | 12.5 µg/mL (≈ 29.5 µM) | 12.5 µg/mL (≈ 29.5 µM) | 20 mm | 26 mm | 27 mm | 22 mm | 21 mm | 25 mm | diameter of the inhibition zone (DIZ) [20]: 23 mm; diameter of the inhibition zone (DIZ) [21]: 28 mm; diameter of the inhibition zone (DIZ) [22]: 24 mm; diameter of the inhibition zone (DIZ) [23]: 25 mm; diameter of the inhibition zone (DIZ) [24]: 23 mm; diameter of the inhibition zone (DIZ) [25]: 24 mm
COc1ccc(/C=C/C(=O)c2ccc(Nc3cc(=O)oc4ccccc34)cc2)cc1OC | 97% | 200 µg/mL (≈ 468 µM) | 100 µg/mL (≈ 234 µM) | 100 µg/mL (≈ 234 µM) | 50 µg/mL (≈ 117 µM) | 25 µg/mL (≈ 58.5 µM) | 25 µg/mL (≈ 58.5 µM) | 50 µg/mL (≈ 117 µM) | 100 µg/mL (≈ 234 µM) | 100 µg/mL (≈ 234 µM) | 50 µg/mL (≈ 117 µM) | 25 µg/mL (≈ 58.5 µM) | 50 µg/mL (≈ 117 µM) | 25 µg/mL (≈ 58.5 µM) | 17 mm | 16 mm | 17 mm | 21 mm | 20 mm | 19 mm | diameter of the inhibition zone (DIZ) [20]: 16 mm; diameter of the inhibition zone (DIZ) [21]: 17 mm; diameter of the inhibition zone (DIZ) [22]: 18 mm; diameter of the inhibition zone (DIZ) [23]: 22 mm; diameter of the inhibition zone (DIZ) [24]: 19 mm; diameter of the inhibition zone (DIZ) [25]: 21 mm
CC(=O)N1N=C(c2ccc(Nc3cc(=O)oc4ccccc34)cc2)CC1c1ccccc1 (centres undefined) | 95% | 1000 µg/mL (≈ 2360 µM) | 100 µg/mL (≈ 236 µM) | 100 µg/mL (≈ 236 µM) | 100 µg/mL (≈ 236 µM) | 100 µg/mL (≈ 236 µM) | 100 µg/mL (≈ 236 µM) | 100 µg/mL (≈ 236 µM) | 100 µg/mL (≈ 236 µM) | 100 µg/mL (≈ 236 µM) | 100 µg/mL (≈ 236 µM) | 100 µg/mL (≈ 236 µM) | 100 µg/mL (≈ 236 µM) | 100 µg/mL (≈ 236 µM) | 12 mm | 16 mm | 13 mm | <10 mm | <10 mm | 13 mm | diameter of the inhibition zone (DIZ) [20]: 13 mm; diameter of the inhibition zone (DIZ) [21]: 11 mm; diameter of the inhibition zone (DIZ) [22]: 10 mm; diameter of the inhibition zone (DIZ) [23]: <10 mm; diameter of the inhibition zone (DIZ) [24]: 13 mm; diameter of the inhibition zone (DIZ) [25]: <10 mm
O=C(/C=C/c1ccc(O)cc1O)c1ccc(Nc2cc(=O)oc3ccccc23)cc1 | 95% | 500 µg/mL (≈ 1250 µM) | 100 µg/mL (≈ 250 µM) | 25 µg/mL (≈ 62.6 µM) | 25 µg/mL (≈ 62.6 µM) | 50 µg/mL (≈ 125 µM) | 100 µg/mL (≈ 250 µM) | 25 µg/mL (≈ 62.6 µM) | 25 µg/mL (≈ 62.6 µM) | 25 µg/mL (≈ 62.6 µM) | 25 µg/mL (≈ 62.6 µM) | 50 µg/mL (≈ 125 µM) | 100 µg/mL (≈ 250 µM) | 50 µg/mL (≈ 125 µM) | 16 mm | 20 mm | 22 mm | 19 mm | 17 mm | 20 mm | diameter of the inhibition zone (DIZ) [20]: 21 mm; diameter of the inhibition zone (DIZ) [21]: 21 mm; diameter of the inhibition zone (DIZ) [22]: 19 mm; diameter of the inhibition zone (DIZ) [23]: 19 mm; diameter of the inhibition zone (DIZ) [24]: 16 mm; diameter of the inhibition zone (DIZ) [25]: 20 mm
